US8440624B2, “Peptide whitening agents and cosmetic compositions comprising the same” (Chanel Parfums Beaute, priority 2007, dated 2013)
Where a SMILES comes first, the peptide text is derived from it. Where no end group is shown, it is not given here. The star is where a group is joined. Palmitoyl = CCCCCCCCCCCCCCCC(=O)*

How the values were obtained:
B16 melanoma cells [1] = experiment: Effect on melanogenesis (melanin, absorption at 405 nm) boosted by NDP-MSH; type: cell-based; settings: for inhibition of the synthesis of melanine: with NDP-MSH, 96 hours
Description: (§1) B16 melanoma cells were cultured at 37° C. and 5% of CO2 in microplates with 96 wells in the presence of DMEM (Invitrogen, reference 11880028) containing 1 g/l of glucose without phenol red supplemented by 3 g/l of glucose (Sigma, reference G7021), 2 mM of L-glutamine, 50 UI/ml of penicillin, 50 μg/ml of […] (Invitrogen, reference 15070063) and 10% of fetal veal serum (Invitrogen, 10270098). After 24 h, the culture medium is replaced by a DMEM medium containing or not (control) a stable derivative of α-MSH, i.e. NDP-MSH (NLE-4-D-PHE-7-A Melanocytes Stimulating Hormone, Sigma, reference M-8764) and containing or not the peptide (compound 3 of example 1 or its N-palmitoyl derivative) according to the invention. Each peptide was tested with and without lipofectamine, (Invitrogen, reference 1538-100), an agent used to facilitate the peptide penetration. The melanocytes were then incubated for 72 hours at 37° C. and 5% of CO2.
The protocol used is the same as in example 3. The melanocytes were incubated for 96 hours at 37° C. and 5% of CO2. Kojic acid was used as a positive control.
At the end of the incubation period, the quantity of melanine was evaluated by measuring the absorption at 405 nm for each sample.

B16 melanoma cells [2] = experiment: Melanocyte intracellular penetration of peptide+FITC; type: cell-based; settings: 72 hours
Description: as §1
At the end of the incubation period, the medium was eliminated and cells were rinsed with a solution of PBS (phosphate buffer saline). The penetration of each peptide was analyzed by microscopy (In Cell Analyser® 100, GE Healthcare) with the objective ×20 or by Flux Cytometry after unsticking of cells by enzymatic treatment with trypsine (Flux FACSarray, Becton Dickinson).
The following table 1 illustrates the measurement of the penetration of the peptide+FITC (fluoresceine isothiocyanate) in B16 melanocytes at different peptide concentrations (4, 20, 100 and 500 μg/ml).

[3] = test system: binding of AP-2 to the dileucine-based sorting signal containing tyrosinase; experiment: BIAcore competition: binding of AP-2 to tyrosinase tail peptide; parameters: species or system human; settings: 200 nM adaptor, 10-1000 fold molar excess of peptide; FIG. 3
Description: (§2) Human tyrosinase also contains tyrosine residues in its cytoplasmic tail sequence, however they are not relevant with respect to adaptor binding. Instead, the tail contains a dileucine-based sorting signal that is bound by adaptors such as AP-2 and AP-3.
(§3) Binding between adaptors and the tyrosinase tail peptide was recorded in real-time using a BIAcore 3000 biosensor (GEHealthcare) based on surface plasmon resonance. The tyrosinase tail peptide (sequence: -[…]) (SEQ ID NO: 6) was immobilized on the surface of a CM5 sensor surface using thiol coupling and resulting in the immobilization of ≦300 RU of peptide. In brief, the CM5 surface was activated with EDC/NHS for 2 min at a flow-rate of 10 μl/min, followed by modification with PDEA for another 2 min. Subsequently, peptide was injected at a flow-rate of 5 μl/min for 1 min at a concentration of 5 μg/ml in 10 mM sodium acetate pH 4.5. The flow-rate was then adjusted to 20 μl/min and remaining active groups were blocked by injection of 50 mM cysteine, 1M NaCl. […]
(§4) For competition experiments, 200 nM adaptors were incubated with a 10-1000 fold molar excess of one of the 5 compound peptides for 10 min prior to injection. For comparison of adaptor binding to the immobilized tyrosinase tail, the RU values at the end of the injection (association period) and after the dissociation period were evaluated. […]

[4] = test system: binding of AP-3 to the dileucine-based sorting signal containing tyrosinase; experiment: BIAcore competition: binding of AP-3 to tyrosinase tail peptide; parameters: species or system human; settings: 200 nM adaptor, 10-1000 fold molar excess of peptide; FIG. 4
Description: as §2, §3, §4

[5] = without lipofectamine, 20 μg/ml
[6] = without lipofectamine, 100 μg/ml
[7] = without lipofectamine, 500 μg/ml

penetration of the peptide+FITC in B16 melanocytes (B16 melanoma cells [2]; with lipofectamine, 4 μg/ml) [% control]	penetration of the peptide+FITC in B16 melanocytes (B16 melanoma cells [2]; with lipofectamine, 20 μg/ml) [% control]	penetration of the peptide+FITC in B16 melanocytes (B16 melanoma cells [2]; with lipofectamine, 100 μg/ml) [% control]	penetration of the peptide+FITC in B16 melanocytes (B16 melanoma cells [2]; with lipofectamine, 500 μg/ml) [% control]	penetration of the peptide+FITC in B16 melanocytes (B16 melanoma cells [2]; without lipofectamine, 4 μg/ml)	penetration of the peptide+FITC in B16 melanocytes (B16 melanoma cells [2]; [5]) [% control]	penetration of the peptide+FITC in B16 melanocytes (B16 melanoma cells [2]; [6]) [% control]	penetration of the peptide+FITC in B16 melanocytes (B16 melanoma cells [2]; [7]) [% control]	inhibition of the binding of AP-2 to tyrosinase [3]	inhibition of the binding of AP-3 to tyrosinase [4]	Molecule	inhibition of the NDP-MSH induction of the synthesis of melanin (B16 melanoma cells [1]; tested between 36 and 80 μg/ml)	inhibition of the synthesis of melanine (B16 melanoma cells [1]; 6.9 μg/ml)	inhibition of the synthesis of melanine (B16 melanoma cells [1]; 15.6 μg/ml)	inhibition of the synthesis of melanine (B16 melanoma cells [1]; 36 μg/ml)	inhibition of the synthesis of melanine (B16 melanoma cells [1]; 80 μg/ml)	inhibition of the synthesis of melanine (B16 melanoma cells [1]; without lipofectamine, 0.5 μg/ml)	inhibition of the synthesis of melanine (B16 melanoma cells [1]; without lipofectamine, 1 μg/ml)	inhibition of the synthesis of melanine (B16 melanoma cells [1]; without lipofectamine, 2.5 μg/ml)	inhibition of the synthesis of melanine (B16 melanoma cells [1]; without lipofectamine, 5 μg/ml)	inhibition of the synthesis of melanine (B16 melanoma cells [1]; without lipofectamine, 10 μg/ml)
										O=c1cc(CO)occ1O [Kojic acid, reference compound]	sharply inhibited	−13 % of inhibition	−7 % of inhibition	33 % of inhibition	75 % of inhibition					
765	1495	1331	7726	276 % control	364	1486	982			CCCCCCCCCCCCCCCC(=O)N[C@@H](C)C(=O)N[C@@H](CCC(=O)O)C(=O)N[C@@H](CC(=O)O)C(=O)N[C@@H](CCC(=O)O)C(=O)N1CCC[C@H]1C(=O)N[C@@H](CC(C)C)C(=O)N[C@@H](CC(C)C)C(=O)N[C@@H](CCSC)C(=O)N[C@@H](CCC(=O)O)C(=O)O [N-palmitoyl derivative of compound 3] (Palmitoyl-AEDEPLLME-OH; C-terminus assumed)						ns *	9 % of inhibition	10 % of inhibition	14 % of inhibition	20 % of inhibition
166	338	1097	4265	ns *	263	533	1640			AEDEPLLME [Compound 3, AEDEPLLME]										
								most active	most active	AEDEPLLVD [Compound 4]										
